The supplement of paper PMC8882468

Legend:
Assay in all cases: CTG-3D luminescence at 96 h relative to day-0 seeding control (ratio to day 0); higher = more growth / less cytotoxicity; PDxO 3D drug screen, 96 h, CTG-3D normalised to day-0 seeding control.
[1] = tested on: HCI-008 (organoid from a HER2-enriched breast cancer xenograft)
[2] = tested on: HCI-010 (organoid from a breast cancer xenograft)
[3] = tested on: HCI-011.E2 (organoid from an ER-positive breast cancer xenograft)
[4] = tested on: HCI-023 (organoid from a triple-negative breast cancer xenograft)
[5] = tested on: HCI-025 (organoid from a breast cancer xenograft)
[6] = tested on: HCI-027 (organoid from a triple-negative breast cancer xenograft)

CC(C)n1nc(-c2ccc3oc(N)nc3c2)c2c(N)ncnc21 [sapanisertib]
CTG-3D luminescence at 96 h
Conditions	12.5 pM	0.00025 µM	0.005 µM	0.1 µM	1 µM	10 µM	100 µM	625 fM
[1], days in culture: 228	1.63	1.78	0.85	0.502	0.33	0.185	0.0307	1.78
[1], days in culture: 244	1.15	1.75	1.82	0.854	0.511	0.267	0.0296	2.11
[2], days in culture: 52	2.19	2.6	1.89	0.958	0.693	0.249	0.011	2.4
[2], days in culture: 65	1.61	1.71	1.34	0.701	0.447	0.0873	0.00591	1.71
[2], days in culture: 103	3.65	3.1	3	1.48	1.26	0.555	-0.00132	3.02
[3], days in culture: 74	2.89	2.86	1.28	0.283	0.158	0.168	0.26	2.98
[4], days in culture: 111	1.32	1.65	1.1	0.701	0.401	0.462	0.0354	1.44
[4], days in culture: 128	1.42	1.44	0.963	0.727	0.428	0.484	0.0623	1.75
[5], days in culture: 172	2.78	1.04	1.61	0.407	0.372	0.145	0.00492	2.01
[5], days in culture: 209	1.39	2.18	1.62	0.44	0.256	0.217	0.0409	1.33
[5], days in culture: 218	1.85	2.15	1.44	0.421	0.231	0.291	0.0278	1.99
[6], days in culture: 176	2.05	1.48	2.22	0.7	0.529	0.264	0.0926	1.82
[6], days in culture: 194	1.72	1.59	1.5	0.847	0.824	0.441	0.102	1.57
[6], days in culture: 201	2.25	1.83	2.1	0.956	0.784	0.301	0.141	2.47

[3]
Conditions	CTG-3D luminescence at 96 h
12.5 pM	1.81
0.00025 µM	1.79
0.005 µM	1.06
0.1 µM	0.362
1 µM	0.179
10 µM	0.212
100 µM	0.311
625 fM	1.74

Cc1nc(-c2cn3c(n2)-c2ccc(-c4cnn(C(C)(C)C(N)=O)c4)cc2OCC3)n(C(C)C)n1 [taselisib]
CTG-3D luminescence at 96 h
Conditions	12.5 pM	0.00025 µM	0.005 µM	0.1 µM	1 µM	10 µM	100 µM	625 fM
[1], days in culture: 228	1.62	1.54	1.28	0.687	0.439	0.314	0.174	1.8
[1], days in culture: 244	1.38	1.94	1.92	0.848	0.448	0.358	0.123	2.25
[2], days in culture: 52	2.17	2.09	1.97	2.31	1.65	0.735	0.0132	2.15
[2], days in culture: 65	1.89	1.84	1.88	1.78	1.24	0.457	0.00794	1.82
[2], days in culture: 103	3.55	3.66	3.45	3.46	2.33	0.906	0.0169	2.92
[3], days in culture: 74	2.48	2.64	1.33	0.778	0.432	0.326	0.711	2.81
[4], days in culture: 111	1.53	1.41	1.4	0.966	0.707	0.842	0.0187	1.35
[4], days in culture: 128	1.9392	1.52	1.88	1.68	1.2	1.18	0.33	1.86
[5], days in culture: 172	3.15	1.96	3.8	1.36	0.93	0.235	0.0865	1.92
[5], days in culture: 209	1.6	2.39	1.79	1.16	0.455	0.267	0.0164	1.64
[5], days in culture: 218	1.42	1.87	1.83	0.886	0.193	0.296	0.0322	1.54
[6], days in culture: 176	1.91	1.52	2.2	1.11	1.31	0.095	0.0289	1.82
[6], days in culture: 194	1.73	1.53	1.35	1.11	1.6	0.208	0.00956	1.77
[6], days in culture: 201	2.55	2.73	2.59	1.88	1.72	0.173	0.031	2.81

[3]
Conditions	CTG-3D luminescence at 96 h
12.5 pM	1.44
0.00025 µM	1.59
0.005 µM	1.07
0.1 µM	0.776
1 µM	0.369
10 µM	0.212
100 µM	0.527
625 fM	1.51
